We go through 19 compounds from patent publication US20250376458A1, “COMPOUNDS AND METHODS FOR YAP/TEAD MODULATION AND INDICATIONS THEREFOR” (OPNA BIO SA, priority 2023, published 2025).

One assay concerns TEAD-dependent transcription. The experiment in a line: TEAD-dependent transcription cell-based luciferase reporter assay (MSTO-211H+12XGTIIC). More on the design: species or system human. Particulars: Homo sapiens, MSTO-211H, 24 h, MSTO-211H+12XGTIIC cell line, 24 hours compound incubation, luminescence normalized to cell viability fluorescence signal; read-out: MSTO-211H GMean IC50 (uM) Cell Assay Reporter Cell Variant: TEAD. From the text:
Determine Inhibitor Activity Against TEAD-Dependent Transcription in a Cell-Based Reporter Assay
The human mesothelioma cell line MSTO-211H was stably transfected with a pGL4.21 plasmid containing a synthetic promoter with 12 copies of the GTIIC TEAD response element that drives the expression of a luciferase reporter gene i using Lipofectamine transfection reagent (Thermo Fisher). Transfected cells were selected using puromycin and single cell clones expressing this construct (referred to as MSTO-211H+12XGTIIC) were generated by limiting dilution. MSTO-211H cells was characterized by genetic alterations in key components of the Hippo pathway^2, resulting in up-regulation of YAP/TEAD-mediated transcription. […] To evaluate TEAD inhibitors, the MSTO-211H+12XGTIIC cell line was seeded in a 96-well plate in 50 μL of culture media at 1×10^4 cells per well and incubated at 37° C. overnight. Serial dilutions of compounds (in total volume of 50 μL of culture media) were added to the cells and incubated at 37° C. for 24 hours. Each plate included cells treated with DMSO as high controls and cells treated with 20 μM of the reference compound K-975 (a known TEAD inhibitor)^3 as low controls. Cell viability was assayed by the addition of 25 μL of CellTiter-Fluor reagent (Promega) followed by a 30-minute incubation at 37° C. and quantification of the fluorescence signal (Ex400/Em505). Subsequently, luciferase expression was assayed by the addition of 25 μL of ONE-Glo reagent (Promega) followed by a 10-minute incubation at room temperature and quantification of the luminescence signal. The luminescence signal was normalized to the fluorescence signal to correct for any loss in cell viability over the 24-hour compound incubation period. The percentage of inhibition of normalized luminescence signal, indicative of compound-mediated inhibition of TEAD-dependent transcription, at individual compound concentrations relative to high and low controls was calculated. The data were analyzed by using nonlinear regression to generate IC50 values for individual compounds.
A general note: Reporter assays use an easily measured gene product as a stand-in for the process of interest.
With `CCS(=O)(=O)c1nc(C(=O)N2CCc3cc(Oc4ccc(C(F)(F)F)cc4)ccc3C2)c[nH]1` [O-0079, (2-(ethylsulfonyl)-1H-imidazol-4-yl)(6-(4-(trifluoromethyl)phenoxy)-3,4-dihydroisoquinolin-2(1H)-yl)methanone], the IC50 (as a rule, the point on the concentration scale where inhibition reaches its midpoint) lay within 0.001 to 10 µM. On the same count and under the same terms, in the case of `Cn1cc(C(=O)N2CCc3c(cccc3Nc3ccc(C(F)(F)F)cc3)C2)nc1S(C)(=O)=O` [O-0007, (1-methyl-2-(methylsulfonyl)-1H-imidazol-4-yl)(5-((4-(trifluoromethyl)phenyl)amino)-3,4-dihydroisoquinolin-2(1H)-yl)methanone] it was 0.001 to 10 µM. The same measure, in the same setting: in the case of `CCS(=O)(=O)c1nc(C(=O)N2CCc3c(cccc3Nc3ccc(C(F)(F)F)cc3)C2)c[nH]1` [O-0012, (2-(ethylsulfonyl)-1H-imidazol-4-yl)(5-((4-(trifluoromethyl)phenyl)amino)-3,4-dihydroisoquinolin-2(1H)-yl)methanone] it was above 100 µM; in that of `CS(=O)(=O)c1nc(C(=O)N2CCc3c(cccc3Oc3ccc(C(F)(F)F)cc3F)C2)c[nH]1` [O-0118, (5-(2-fluoro-4-(trifluoromethyl)phenoxy)-3,4-dihydroisoquinolin-2(1H)-yl)(2-(methylsulfonyl)-1H-imidazol-4-yl)methanone], 0.001 to 10 µM; in that of `CS(=O)(=O)c1nc(C(=O)N2CCc3ccc(Nc4ccc(C(F)(F)F)cn4)cc3C2)c[nH]1` [O-0015, (2-(methylsulfonyl)-1H-imidazol-4-yl)(7-((5-(trifluoromethyl)pyridin-2-yl)amino)-3,4-dihydroisoquinolin-2(1H)-yl)methanone], 10 to 100 µM. Same read-out and setting: for `CS(=O)(=O)c1nc(C(=O)N2CCc3cc(Oc4ccc(C(F)(F)F)c(F)c4)cnc3C2)c[nH]1` [O-0077, (3-(3-fluoro-4-(trifluoromethyl)phenoxy)-5,8-dihydro-1,7-naphthyridin-7(6H)-yl)(2-(methylsulfonyl)-1H-imidazol-4-yl)methanone] the value was 0.001 to 10 µM; for `CCS(=O)(=O)c1nc(C(=O)N2CCc3c(ncnc3Oc3ccc(C(F)(F)F)cc3)C2)c[nH]1` [O-0130, (2-(ethylsulfonyl)-1H-imidazol-4-yl)(4-(4-(trifluoromethyl)phenoxy)-5,8-dihydropyrido[3,4-d]pyrimidin-7(6H)-yl)methanone], 10 to 100 µM; for `CS(=O)(=O)c1nc(C(=O)N2CCc3c(cccc3Nc3ccc(C(F)(F)F)cc3F)C2)c[nH]1` [O-0010, (5-((2-fluoro-4-(trifluoromethyl)phenyl)amino)-3,4-dihydroisoquinolin-2(1H)-yl)(2-(methylsulfonyl)-1H-imidazol-4-yl)methanone], 0.001 to 10 µM. As for `CS(=O)(=O)c1nc(C(=O)N2CCc3c(cccc3NC3CCC(F)(F)CC3)C2)c[nH]1` [O-0124, (5-((4,4-difluorocyclohexyl)amino)-3,4-dihydroisoquinolin-2(1H)-yl)(2-(methylsulfonyl)-1H-imidazol-4-yl)methanone], the 50% inhibitory concentration (IC50) was above 100 µM. Same read-out and setting: in the case of `Cn1cc(C(=O)N2CCc3c(cccc3Nc3ccc(C(F)(F)F)cn3)C2)nc1S(C)(=O)=O` [O-0005, (1-methyl-2-(methylsulfonyl)-1H-imidazol-4-yl)(5-((5-(trifluoromethyl)pyridin-2-yl)amino)-3,4-dihydroisoquinolin-2(1H)-yl)methanone] it was 0.001 to 10 µM. Same read-out and setting: in the case of `CC(C)S(=O)(=O)c1nc(C(=O)N2CCc3c(cccc3Nc3ccc(C(F)(F)F)cc3)C2)c[nH]1` [O-0022, (2-(isopropylsulfonyl)-1H-imidazol-4-yl)(5-((4-(trifluoromethyl)phenyl)amino)-3,4-dihydroisoquinolin-2(1H)-yl)methanone] it was 0.001 to 10 µM. Same read-out and setting: for `CCCS(=O)(=O)c1nc(C(=O)N2CCc3c(cccc3Nc3ccc(C(F)(F)F)c(F)c3)C2)c[nH]1` [O-0026, (5-((3-fluoro-4-(trifluoromethyl)phenyl)amino)-3,4-dihydroisoquinolin-2(1H)-yl)(2-(propylsulfonyl)-1H-imidazol-4-yl)methanone] the value was 0.001 to 10 µM.

For the compound `CS(=O)(=O)c1nc(C(=O)N2CCc3c(cccc3Nc3ccc(C(F)(F)F)nc3)C2)c[nH]1` [O-0009, (2-(methylsulfonyl)-1H-imidazol-4-yl)(5-((6-(trifluoromethyl)pyridin-3-yl)amino)-3,4-dihydroisoquinolin-2(1H)-yl)methanone], the IC50 was 10 to 100 µM. On the same count and under the same terms, for `CS(=O)(=O)c1nc(C(=O)N2CCc3ccc(Nc4ccc(C(F)(F)F)cc4)cc3C2)c[nH]1` [O-0013, (2-(methylsulfonyl)-1H-imidazol-4-yl)(7-((4-(trifluoromethyl)phenyl)amino)-3,4-dihydroisoquinolin-2(1H)-yl)methanone] the value was above 100 µM; for `CCCS(=O)(=O)c1nc(C(=O)N2CCc3cc(Oc4ccc(C(F)(F)F)cc4)ccc3C2)c[nH]1` [O-0081, (2-(propylsulfonyl)-1H-imidazol-4-yl)(6-(4-(trifluoromethyl)phenoxy)-3,4-dihydroisoquinolin-2(1H)-yl)methanone], 0.001 to 10 µM; for `CCS(=O)(=O)c1nc(C(=O)N2CCc3c(cccc3Nc3ccc(C(F)(F)F)c(F)c3)C2)c[nH]1` [O-0025, (2-(ethylsulfonyl)-1H-imidazol-4-yl)(5-((3-fluoro-4-(trifluoromethyl)phenyl)amino)-3,4-dihydroisoquinolin-2(1H)-yl)methanone], above 100 µM.

With `CS(=O)(=O)c1nc(C(=O)N2CCc3c(cccc3Oc3ccc(C(F)(F)F)c(F)c3)C2)c[nH]1` [O-0114, (5-(3-fluoro-4-(trifluoromethyl)phenoxy)-3,4-dihydroisoquinolin-2(1H)-yl)(2-(methylsulfonyl)-1H-imidazol-4-yl)methanone], the half-inhibitory concentration (IC50) is 0.001 to 10 µM.

Still in this assay, the particulars now being: MSTO-211H+12XGTIIC cell line, 24 hours compound incubation, luminescence normalized to cell viability fluorescence signal; read-out: MSTO-211H GMean IC50 (uM) Cell Assay Reporter Cell Variant: TEAD.
Consider `CS(=O)(=O)c1nc(C(=O)N2CCc3c(ncnc3Oc3ccc(C(F)(F)F)cc3)C2)c[nH]1` [O-0131, (2-(methylsulfonyl)-1H-imidazol-4-yl)(4-(4-(trifluoromethyl)phenoxy)-5,8-dihydropyrido[3,4-d]pyrimidin-7(6H)-yl)methanone], for which the IC50 lay in the range of 10 to 100 µM. On to `CS(=O)(=O)c1nc(C(=O)N2CCc3ccc(Nc4ccc(C(F)(F)F)c(F)c4)cc3C2)c[nH]1` [O-0121, (7-((3-fluoro-4-(trifluoromethyl)phenyl)amino)-3,4-dihydroisoquinolin-2(1H)-yl)(2-(methylsulfonyl)-1H-imidazol-4-yl)methanone], for which the IC50 was 0.001 to 10 µM.
